IC50 data for 25 compounds are collected here from US10538497B2, “Compounds as indoleamine 2,3-dioxygenase inhibitors” (Merck Sharp & Dohme Corp., priority 2015, dated 2020).

The target in assay [1] is T1, IDO1 (Homo sapiens (Human), UniProt P14902). Kind of assay: IDO1 Cellular Assay in Hela Cells Stimulated with IFNγ. The assay is classed as cell-based. The note with it: Hela cells stimulated with IFNγ 100 ng/mL; read-out: IDO1 HELA Cell Assay, IC50. Here is the method:
IDO1 Cellular Assay in Hela Cells Stimulated with IFNγ
Hela cells were cultured in complete Hela culture medium (90% EMEM, 10% heat-inactivated fetal bovine serum) and expanded to about 1×10^9 cells. The cells were then collected and frozen down at 10×10^6 cells/vial in 1 mL frozen medium (90% complete Hela culture medium, 10% DMSO)
Frozen Hela cells were thawed and transferred into Hela assay medium (99% complete Hela culture medium, 1% Pen/Strep) with 20 mL medium/vial of cells. The cells were spun down at 250 g in a table top centrifuge for 5 min and suspended in same volume of Hela assay medium. The cells were then counted and adjusted to a density of 2×10^5 cells/ml in Hela assay medium. Sterile L-tryptophan were added to the cells with final concentration of 300 uM L-tryptophan. A small aliquot (2 mL/plate) of Hela cells were set aside and were not treated with IFNγ, to serve as the Max-E control. The rest of Hela cells were added with sterile IFNγ (Cat #285-IF, R & D systems) with a final concentration of 100 ng/mL.
Hela cells with and without IFNγ were dispensed to the respective wells of 384-well assay plates containing the compounds. The plates were incubated for about 48 hours at a 37° C., 5% CO2 incubator. […] The plates were centrifuged for 1 min at 200×g. The resulting fluorescence was measured in a Spectramax plate reader (Molecular Devices) with a 400 nm excitation filter and a 510 nm emission filter.

Assay [2] has as its target T1, IDO1. Kind of assay: IDO1 Enzyme Assay. The note with it: HIS-tagged recombinant IDO1, 40 nM.
[3] abbreviates: read-out: IDO1 Enzyme Assay, IC50.

T1 sequence (P14902 whole entry): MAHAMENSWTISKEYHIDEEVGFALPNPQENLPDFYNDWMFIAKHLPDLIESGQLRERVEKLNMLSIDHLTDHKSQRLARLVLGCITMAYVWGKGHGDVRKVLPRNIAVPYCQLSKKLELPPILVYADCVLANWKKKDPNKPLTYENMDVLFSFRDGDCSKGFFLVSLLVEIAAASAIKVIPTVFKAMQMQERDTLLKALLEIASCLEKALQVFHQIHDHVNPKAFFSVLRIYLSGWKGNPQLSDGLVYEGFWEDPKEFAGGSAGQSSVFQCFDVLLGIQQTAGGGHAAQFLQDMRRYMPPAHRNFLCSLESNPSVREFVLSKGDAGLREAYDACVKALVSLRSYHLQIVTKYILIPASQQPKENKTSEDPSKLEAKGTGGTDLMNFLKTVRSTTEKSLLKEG

`O=C(CSc1nonc1/C(=N/O)Nc1ccc(F)c(Br)c1)NCC(O)CN1CCOCC1` (single isomer, unassigned) [Example 206, 2-((4-(N-(3-bromo-4-fluorophenyl)-N′-hydroxycarbamimidoyl)-1,2,5-oxadiazol-3-yl)thio)-N-(2-hydroxy-3-morpholinopropyl)acetamide]: the IC50 at IDO1 [1] turned out to be 0.111 µM; at IDO1 [2] (IDO1 Enzyme Assay, IC50, nM) it was 39.3 nM.

Regarding `O=C(CSc1nonc1/C(=N/O)Nc1ccc(F)c(Br)c1)NCC(O)CN1CCOCC1` (single isomer, unassigned) [Example 207, 2-((4-(N-(3-bromo-4-fluorophenyl)-N′-hydroxycarbamimidoyl)-1,2,5-oxadiazol-3-yl)thio)-N-(2-hydroxy-3-morpholinopropyl)acetamide], the IC50 at IDO1 [1] is 0.14 µM; at IDO1 [2] (IDO1 Enzyme Assay, IC50, nM), 43.1 nM.

In the case of `CC(=O)NCCOc1nonc1/C(=N/O)Nc1ccc(F)c(Br)c1` [Example 5, N-(2-((4-(N-(3-bromo-4-fluorophenyl)-N′-hydroxycarbamimidoyl)-1,2,5-oxadiazol-3-yl)oxy)ethyl)acetamide], the IC50 was determined as 0.094 µM on IDO1 [1] and 47.6 nM on IDO1 [2] (setting [3]).

On to `O=C(COc1nonc1/C(=N/O)Nc1ccc(F)c(Br)c1)NCCO` [Example 6, 2-((4-(N-(3-Bromo-4-fluorophenyl)-N′-hydroxycarbamimidoyl)-1,2,5-oxadiazol-3-yl)oxy)-N-(2-hydroxyethyl)acetamide], for which the IC50 was determined as 0.144 µM on IDO1 [1] and 44 nM on IDO1 [2] (setting [3]).

Consider `CC(C)(CO)NC(=O)CSc1nonc1/C(=N/O)Nc1ccc(F)c(Br)c1` [Example 27, 2-((4-(N-(3-bromo-4-fluorophenyl)-N′-hydroxycarbamimidoyl)-1,2,5-oxadiazol-3-yl)thio)-N-(1-hydroxy-2-methylpropan-2-yl)acetamide], for which the IC50 is 0.0176 µM on IDO1 [1] and 29.8 nM at IDO1 [2] (setting [3]).

Turning to `CC(C)(O)CNC(=O)CSc1nonc1/C(=N/O)Nc1ccc(F)c(Br)c1` [Example 28, 2-((4-(N-(3-bromo-4-fluorophenyl)-N′-hydroxycarbamimidoyl)-1,2,5-oxadiazol-3-yl)thio)-N-(2-hydroxy-2-methylpropyl)acetamide], the IC50 at IDO1 [1] is 0.0659 µM; on IDO1 [2] (setting [3]), 38 nM.

Regarding `O=S1(=O)NC[C@H](CSc2nonc2/C(=N/O)Nc2ccc(F)c(Cl)c2)N1` [Example 32, (R)—N-(3-chloro-4-fluorophenyl)-4-(((1,1-dioxido-1,2,5-thiadiazolidin-3-yl)methyl)thio)-N′-hydroxy-1,2,5-oxadiazole-3-carboximidamide], the IC50 on IDO1 [1] amounted to 0.0131 µM; at IDO1 [2] (setting [3]) it was 32 nM.

As for `O=S1(=O)NC[C@H](CSc2nonc2/C(=N/O)Nc2ccc(F)c(Br)c2)N1` [Example 33, (R)—N-(3-bromo-4-fluorophenyl)-4-(((1,1-dioxido-1,2,5-thiadiazolidin-3-yl)methyl)thio)-N′-hydroxy-1,2,5-oxadiazole-3-carboximidamide], the IC50 at IDO1 [1] was 0.0263 µM; at IDO1 [2] (setting [3]) it was 53.5 nM.

In the case of `CC(C)(O)[C@@H](O)CSc1nonc1C(=NO)Nc1ccc(F)c(C#N)c1` [Example 38, (R)—N-(3-cyano-4-fluorophenyl)-4-((2,3-dihydroxy-3-methylbutyl)thio)-N′-hydroxy-1,2,5-oxadiazole-3-carboximidamide], the IC50 at IDO1 [1] was 0.118 µM; on IDO1 [2] (setting [3]), 144 nM.

Consider `CC(C)(O)[C@H](O)CSc1nonc1C(=NO)Nc1ccc(F)c(C#N)c1` [Example 39, (S)—N-(3-cyano-4-fluorophenyl)-4-((2,3-dihydroxy-3-methylbutyl)thio)-N′-hydroxy-1,2,5-oxadiazole-3-carboximidamide], for which the figures for the IC50 at IDO1 [1] and at IDO1 [2] (setting [3]) were 0.0876 µM and 118 nM, respectively.

As to `O=c1cc(C(F)(F)F)cc(CSc2nonc2/C(=N/O)Nc2ccc(F)c(Br)c2)[nH]1` [Example 88, N-(3-bromo-4-fluorophenyl)-N′-hydroxy-4-({[6-oxo-4-(trifluoromethyl)-1,6-dihydropyridin-2-yl]methyl}sulfanyl)-1,2,5-oxadiazole-3-carboximidamide], the IC50 on IDO1 [1] worked out at 0.174 µM; on IDO1 [2] (setting [3]) it was 173 nM.

With `O=c1c(NCCSc2nonc2/C(=N/O)Nc2ccc(F)c(Br)c2)c(NCC2CC2)c1=O` [Example 89, N-(3-bromo-4-fluorophenyl)-4-{[2-({2-[(cyclopropylmethyl)amino]-3,4-dioxocyclobut-1-en-1-yl}amino)ethyl]sulfanyl}-N′-hydroxy-1,2,5-oxadiazole-3-carboximidamide], the IC50 at IDO1 [2] (setting [3]) stood at 39 nM.

Consider `O=c1c(NCCO)c(NCCSc2nonc2/C(=N/O)Nc2ccc(F)c(Br)c2)c1=O` [Example 90, N-(3-bromo-4-fluorophenyl)-N′-hydroxy-4-{[2-({2-[(2-hydroxyethyl)amino]-3,4-dioxocyclobut-1-en-1-yl}amino)ethyl]sulfanyl}-1,2,5-oxadiazole-3-carboximidamide], for which the IC50 at IDO1 [2] (setting [3]) came out at 29.3 nM.

As to `O=C(CSc1nonc1C(=NO)Nc1ccc(F)c(Br)c1)N1CCC[C@H]1CO` [Example 134, N-(3-bromo-4-fluorophenyl)-N′-hydroxy-4-({2-[(2S)-2-(hydroxymethyl)pyrrolidin-1-yl]-2-oxoethyl}sulfanyl)-1,2,5-oxadiazole-3-carboximidamide], on IDO1 [2] (IDO1 Enzyme Assay, IC50, nM), the IC50 was 120 nM.

As to `O=C(CSc1nonc1C(=NO)Nc1ccc(F)c(Br)c1)N1CCC[C@@H]1CO` [Example 135, N-(3-bromo-4-fluorophenyl)-N′-hydroxy-4-({2-[(2R)-2-(hydroxymethyl)pyrrolidin-1-yl]-2-oxoethyl}sulfanyl)-1,2,5-oxadiazole-3-carboximidamide], on IDO1 [2] (IDO1 Enzyme Assay, IC50, nM), the IC50 worked out at 106 nM.

Take `O=C(CSc1nonc1C(=NO)Nc1ccc(F)c(Br)c1)N1CCCC1` [Example 136, N-(3-bromo-4-fluorophenyl)-N′-hydroxy-4-[(2-oxo-2-pyrrolidin-1-ylethyl)sulfanyl]-1,2,5-oxadiazole-3-carboximidamide]: the IC50 at IDO1 [2] (IDO1 Enzyme Assay, IC50, nM) was found to be 112 nM.

For the compound `O=C(CSc1nonc1C(=NO)Nc1ccc(F)c(Br)c1)NCCF` [Example 137, 2-({4-[N-(3-bromo-4-fluorophenyl)-N′-hydroxycarbamimidoyl]-1,2,5-oxadiazol-3-yl}sulfanyl)-N-(2-fluoroethyl)acetamide], on IDO1 [2] (IDO1 Enzyme Assay, IC50, nM), the IC50 was 34.9 nM.

Take `O=C(CSc1nonc1/C(=N/O)Nc1ccc(F)c(Br)c1)N1CCOCC1` [Example 193, N-(3-bromo-4-fluorophenyl)-N′-hydroxy-4-[(2-morpholin-4-yl-2-oxoethyl)sulfanyl]-1,2,5-oxadiazole-3-carboximidamide]: the concentration for half-maximal inhibition (IC50) was 0.143 µM on IDO1 [1] and 73.8 nM on IDO1 [2] (setting [3]).

With `NS(=O)(=O)N[C@H](CO)CSc1nonc1/C(=N/O)Nc1ccc(F)c(Br)c1` [Example 194, N-(3-bromo-4-fluorophenyl)-N′-hydroxy-4-{[(2R)-3-hydroxy-2-(sulfamoylamino)propyl]sulfanyl}-1,2,5-oxadiazole-3-carboximidamide], the IC50 at IDO1 [1] was determined as 0.0471 µM; on IDO1 [2] (setting [3]), 51 nM.

In the case of `O=C(CSc1nonc1/C(=N/O)Nc1ccc(F)c(Br)c1)N1C[C@@H](O)[C@@H](O)C1` [Example 195, N-(3-bromo-4-fluorophenyl)-4-((2-((3S,4R)-3,4-dihydroxypyrrolidin-1-yl)-2-oxoethyl)thio)-N′-hydroxy-1,2,5-oxadiazole-3-carboximidamide], the IC50 on IDO1 [1] is 0.342 µM; on IDO1 [2] (setting [3]), 92.5 nM.

Regarding `O=C(CSc1nonc1/C(=N/O)Nc1ccc(F)c(Br)c1)N1CC[C@H](O)[C@@H](O)C1` [Example 196, N-(3-bromo-4-fluorophenyl)-4-((2-((3S,4S)-3,4-dihydroxypiperidin-1-yl)-2-oxoethyl)thio)-N′-hydroxy-1,2,5-oxadiazole-3-carboximidamide], the IC50 on IDO1 [1] came out at 0.132 µM; at IDO1 [2] (setting [3]), 62.3 nM.

Consider `C[C@H](CO)NC(=O)CSc1nonc1/C(=N/O)Nc1ccc(F)c(Br)c1` [Example 197, (R)-2-((4-(N-(3-bromo-4-fluorophenyl)-N′-hydroxycarbamimidoyl)-1,2,5-oxadiazol-3-yl)thio)-N-(1-hydroxypropan-2-yl)acetamide], for which the IC50 on IDO1 [1] is 0.0153 µM; at IDO1 [2] (setting [3]), 44.9 nM.

Regarding `O=C(CSc1nonc1/C(=N/O)Nc1ccc(F)c(Br)c1)N[C@H]1CCOC[C@H]1O` [Example 198, 2-((4-(N-(3-bromo-4-fluorophenyl)-N′-hydroxycarbamimidoyl)-1,2,5-oxadiazol-3-yl)thio)-N-((3S,4S)-3-hydroxytetrahydro-2H-pyran-4-yl)acetamide], the IC50 at IDO1 [1] was found to be 0.149 µM; on IDO1 [2] (setting [3]), 56 nM.

In the case of `CNS(=O)(=O)NC(=O)CSc1nonc1/C(=N/O)Nc1ccc(F)c(Br)c1` [Example 199, 2-((4-(N-(3-bromo-4-fluorophenyl)-N′-hydroxycarbamimidoyl)-1,2,5-oxadiazol-3-yl)thio)-N-(N-methylsulfamoyl)acetamide], the IC50 at IDO1 [1] turned out to be 0.508 µM; on IDO1 [2] (setting [3]) it was 57.8 nM.

As to `C[C@H](O)CNC(=O)CSc1nonc1/C(=N/O)Nc1ccc(F)c(Br)c1` [Example 200, (S)-2-((4-(N-(3-bromo-4-fluorophenyl)-N′-hydroxycarbamimidoyl)-1,2,5-oxadiazol-3-yl)thio)-N-(2-hydroxypropyl)acetamide], the IC50 on IDO1 [1] is 0.0149 µM; on IDO1 [2] (setting [3]) it was 29.9 nM.

In general, IC50 refers to the concentration needed to halve the response being measured.
